Publication PMC3912022, “A Fluorescence-Based Assay for Measuring the Redox Potential of 5-Lipoxygenase Inhibitors” (PLoS ONE, 2014)
“Also recorded” adds a separate entry of the source.

Assays:
Format in all cases: biochemical
Human recombinant 5-LO [1] = biological target: T1, Human recombinant 5-LO (Homo sapiens, UniProt P09917); experiment: Redox fluorescence assay (remaining 13(S)-HpODE by H2DCFDA fluorescence after pseudo-peroxidase reaction)
T1 construct: purchased Cayman Chemical
T1 sequence (P09917 1-674): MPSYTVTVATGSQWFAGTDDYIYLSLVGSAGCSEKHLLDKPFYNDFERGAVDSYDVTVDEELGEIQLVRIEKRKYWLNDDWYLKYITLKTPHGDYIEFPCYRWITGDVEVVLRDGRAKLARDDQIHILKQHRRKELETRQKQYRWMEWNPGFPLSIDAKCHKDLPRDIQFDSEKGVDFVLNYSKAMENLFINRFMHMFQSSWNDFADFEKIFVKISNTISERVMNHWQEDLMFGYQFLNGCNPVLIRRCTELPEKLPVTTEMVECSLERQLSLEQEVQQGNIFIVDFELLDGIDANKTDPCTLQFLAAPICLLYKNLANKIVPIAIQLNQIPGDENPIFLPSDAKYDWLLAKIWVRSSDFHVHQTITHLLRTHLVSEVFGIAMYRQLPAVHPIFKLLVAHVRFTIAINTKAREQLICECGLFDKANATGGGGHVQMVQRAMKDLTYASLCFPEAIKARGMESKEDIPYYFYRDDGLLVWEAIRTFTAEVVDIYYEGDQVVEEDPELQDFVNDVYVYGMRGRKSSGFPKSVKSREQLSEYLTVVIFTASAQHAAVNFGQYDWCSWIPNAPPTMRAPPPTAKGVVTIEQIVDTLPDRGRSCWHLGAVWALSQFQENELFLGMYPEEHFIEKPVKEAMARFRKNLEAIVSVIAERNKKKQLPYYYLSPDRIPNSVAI
Source text: (§1) Lipid peroxide is consumed when 5-LO is activated to the ferric iron form. The enzyme remains activated during the dioxygenation reaction cycle. If a redox inhibitor is present, it reduces the catalytic iron into the ferrous form and inhibits the enzyme reaction. Another lipid peroxide must be consumed to re-activate 5-LO to the ferric form. As a result, reductions in the amount of lipid peroxide in the reaction mixture signify redox activity. […] The absorbance-based method measures the amount of peroxide by its absorbance at 234 nm, and the fluorescence-based method measures it by analyzing its reaction with H2DCFDA.
H2DCF-DA (60 µM) was pre-cleaved by 5-LO crude lysate in the reaction buffer (50 mM Tris, pH 7.5, 2 mM ethylenediaminetetraacetic acid [EDTA], 2 mM CaCl2, and 10 µM adenosine triphosphate [ATP]) for more than 10 minutes before the main reaction, as previously reported. In a 384-well plate, 10 µl of 450 mU/µl enzyme solution was distributed and mixed with 10 µl of inhibitor solution with various concentrations. 13(S)-HpODE (10 µM; 20 µl) was added to each well to start the reaction. After 3 minutes, pre-cleaved H2DCF-DA dye (20 µl) was added and incubated for more than 10 minutes. The fluorescence signal was measured using a fluorometer at excitation and emission wavelengths of 485 and 530 nm, respectively. All steps were carried out at room temperature.
The highest and lowest compound concentrations in the serially diluted set were 100 µM and 1.69 nM, respectively. […] The final DMSO amount in the reaction mixture was kept at 1% throughout the experiments. […] Four wells without any inhibitors represented the “100% peroxide” control wells, and the average fluorescence values in the control wells were used for normalization of fluorescence data. The concentration points were duplicated in each test and the concentration-dependent fluorescence data were fitted with three-parameter logistic regression in Prism using the top and bottom constraints of 100 and 0, respectively.

Human recombinant 5-LO [2] = biological target: T1, Human recombinant 5-LO; experiment: Redox absorbance assay (13(S)-HpODE absorbance at 234 nm, pseudo-peroxidase activity); conditions: for Redox absorbance, Δabs: absorbance at 234 nm, change over 180 seconds, average ± SD of triplicate
Source text: as §1
The redox absorbance assay was carried out as described by Zweifel, et al.. Specifically, 10 µl of 1 mM inhibitor solution was mixed with 490 µl of 20 µM 13-HpODE solution. After 3 minutes of incubation at room temperature, the solution was transferred to a cuvette. The reaction started when 500 µl of the 20 unit/ml enzyme solution was added to the peroxide-inhibitor mixture in the cuvette. The absorbance of 13(S)-HpODE at 234 nm was measured immediately after mixing, using a SpectraMax M5 spectrophotometer. Data points were collected for 3 minutes. The reaction buffer consisted of 50 mM potassium phosphate buffer (pH 7.6), 0.1 mM EDTA, 100 µM ATP, and 0.3 mM CaCl2.
The accuracy and efficacy of the redox absorbance assay were determined by testing the selected compounds. The absorbance of 13(S)-HpODE was measured at 234 nm, and the values were recorded every second for 3 minutes.
In theory, because the extinction coefficient of 13(S)-HpODE at 234 nm is 23,000 M^−1 cm^−1, 10 µM 13(S)-HpODE contributes a maximum of 0.23 in absorbance.

Human recombinant 5-LO [3] = biological target: T1, Human recombinant 5-LO; experiment: as above
[4] = 10 µM inhibitor, 234 nm, 3 min kinetic curve, Figure 2

Row | EC50 (Human recombinant 5-LO [1]) | Redox absorbance, Δabs (Human recombinant 5-LO [2]; 10 µM inhibitor) | absorbance pattern over time (redox / non-redox pattern) (Human recombinant 5-LO [2]; [4]) | redox activity in absorbance assay carried out in the fluorescence assay buffer (Human recombinant 5-LO [3]; buffer of the redox fluorescence assay, Figure 4-C) | redox activity less than that of the stronger redox inhibitors (Human recombinant 5-LO [1]; fluorescence assay, relative to stronger redox inhibitors) | reduction in absorbance (Human recombinant 5-LO [2]; [4]) | share of the decrease in absorbance in the first 20 seconds (Human recombinant 5-LO [2]; first 20 seconds of the reaction, Figure 2) | absorbance pattern in substrate-depleted conditions (Human recombinant 5-LO [3]; 80 minutes after the start of the reaction, 234 nm, Figure 4) | Structure (SMILES)
1 | – | 0.005±0.003 | no changes in absorbance over time | – | 60% | – | – | – | O=C(O)C=Cc1ccc(O)c(O)c1 [Caffeic acid, 3,4-dihydroxy cinnamic acid]
2 | – | 0.009±0.007 | increases in the absorbance assay | – | – | – | – | – | CC(Cc1ccc(O)c(O)c1)C(C)Cc1ccc(O)c(O)c1 (centres unmarked) [NDGA, 4,4′-(2,3-dimethyl-1,4-butanediyl)bis-1,2-benzenediol]

More lines, now with the values behind:

Row | Structure (SMILES) | EC50 (Human recombinant 5-LO [1]) | Redox absorbance, Δabs (Human recombinant 5-LO [2]; 10 µM inhibitor) | absorbance pattern over time (redox / non-redox pattern) (Human recombinant 5-LO [2]; [4]) | redox activity in absorbance assay carried out in the fluorescence assay buffer (Human recombinant 5-LO [3]; buffer of the redox fluorescence assay, Figure 4-C) | redox activity less than that of the stronger redox inhibitors (Human recombinant 5-LO [1]; fluorescence assay, relative to stronger redox inhibitors) | reduction in absorbance (Human recombinant 5-LO [2]; [4]) | share of the decrease in absorbance in the first 20 seconds (Human recombinant 5-LO [2]; first 20 seconds of the reaction, Figure 2) | absorbance pattern in substrate-depleted conditions (Human recombinant 5-LO [3]; 80 minutes after the start of the reaction, 234 nm, Figure 4)
3 | COc1ccc(/C=C2\SC(c3ccc(Cl)cc3)=NC2=O)cc1 [CAY10649, (Z)-2-(4-chlorophenyl)-5-(4-methoxybenzylidene)thiazol-4(5H)-one] | > 100 µM | 0.014±0.011 | – | – | – | – | – | –
4 | N#CC(=Cc1ccc(O)c(O)c1)C(=O)OCC=Cc1ccccc1 [CDC, cinnamyl 3,4-dihydroxy-alpha-cyanocinnamate] | 0.13 ± 0.17 µM | 0.015±0.005 | perfect non-redox pattern; also recorded: increases in the absorbance assay | redox activity was not detected | – | – | – | –
5 | Cn1nccc1-c1ccc(Sc2cccc(C3(C(N)=O)CCOCC3)c2)cc1 [PF4191834] | > 100 µM | 0.015±0.005 | – | – | – | – | – | –
6 | CCCCCCC(Sc1nc(Cl)cc(Nc2cccc(C)c2C)n1)C(=O)O (centres unmarked) [YS121, 2-[[4-chloro-6-[(2,3-dimethylphenyl)amino]-2-pyrimidinyl]thio]-octanoic acid] | 77.2 ± 35.1 µM | 0.008±0.005 | – | – | – | – | – | –
7 | CC(c1cc2ccccc2s1)N(O)C(N)=O (centres unmarked) [Zileuton, N-[1-benzo(b)thien-2-ylethyl]-N-hydroxy-urea] | – | −0.025±0.018 | clear redox pattern | – | – | 0.042 | about 50% | increased slowly over time
